Tests used:
PC-3 = assay: NCI cancer screening, growth inhibition (SRB); assay type: cell-based; conditions: Prostate Cancer, 48 hours exposure
TK-30 = assay: NCI cancer screening, growth inhibition (SRB); assay type: cell-based
Colon 38 tumor cells = assay: In vivo treatment of Colon 38 tumor cells implanted sc in BDF1 mice; conditions: 25 mg/kg/dose twice daily for five days, FIG. 2
Excerpt: The graph plots tumor growth as a percentage of original tumor weight vs. days. Treatment of the mice occurred in days 1, 2, 3, 4 and 5.
Colon 38 tumor cells were implanted sc to BDF1 mice.

HCT-116 = assay: NCI cancer screening, growth inhibition (SRB); assay type: cell-based; conditions: Colon Cancer, 48 hours exposure
MDA-MB-231/ATCC [1] = assay: cells; conditions: Homo sapiens, MDA-MB-231, 48 h, read-out: Log10 GI50 (converted)
RL-60(TB) = assay: NCI cancer screening, growth inhibition (SRB); assay type: cell-based; conditions: Leukemia, 48 hours exposure
HS578T = assay: NCI cancer screening, growth inhibition (SRB); assay type: cell-based
MCF7 = assay: NCI cancer screening, growth inhibition (SRB); assay type: cell-based; conditions: Breast Cancer, 48 hours exposure
NCI-H460 = assay: NCI cancer screening, growth inhibition (SRB); assay type: cell-based; conditions: Non-Small Cell Lung Cancer, 48 hours exposure
HT29 = assay: NCI cancer screening, growth inhibition (SRB); assay type: cell-based
HOP-62 = assay: NCI cancer screening, growth inhibition (SRB); assay type: cell-based; conditions: Non-Small Cell Lung Cancer, 48 hours exposure
OVCAR-5 = assay: NCI cancer screening, growth inhibition (SRB); assay type: cell-based; conditions: Ovarian Cancer, 48 hours exposure
SN12C = assay: NCI cancer screening, growth inhibition (SRB); assay type: cell-based; conditions: Renal Cancer, 48 hours exposure
CAKI-1 = assay: NCI cancer screening, growth inhibition (SRB); assay type: cell-based; conditions: Renal Cancer, 48 hours exposure
[2] = Non-Small Cell Lung Cancer; 48 hours exposure
MDA-MB-231/ATCC [3] = conditions: Breast Cancer; 48 hours exposure
BT-549 = assay: NCI cancer screening, growth inhibition (SRB); assay type: cell-based; conditions: Breast Cancer, 48 hours exposure
785-4 = assay: NCI cancer screening, growth inhibition (SRB); assay type: cell-based; conditions: Renal Cancer, 48 hours exposure
NCI-H522 = assay: NCI cancer screening, growth inhibition (SRB); assay type: cell-based; conditions: Non-Small Cell Lung Cancer, 48 hours exposure
RXF-393 = assay: NCI cancer screening, growth inhibition (SRB); assay type: cell-based; conditions: Renal Cancer, 48 hours exposure
UACC-62 = assay: NCI cancer screening, growth inhibition (SRB); assay type: cell-based; conditions: Melanoma, 48 hours exposure
NCI-H322M [4] = conditions: Non-Small Cell Lung Cancer; 48 hours exposure
OVCAR-3 = assay: NCI cancer screening, growth inhibition (SRB); assay type: cell-based; conditions: Homo sapiens, OVCAR-3, 48 h, read-out: Log10 GI50 (converted)
SK-MEL-28 = assay: NCI cancer screening, growth inhibition (SRB); assay type: cell-based; conditions: Melanoma, 48 hours exposure
A549/ATCC = assay: NCI cancer screening, growth inhibition (SRB); assay type: cell-based; conditions: Non-Small Cell Lung Cancer, 48 hours exposure
NCI-H322M [5] = assay: cells; conditions: Homo sapiens, 48 h, read-out: Log10 GI50 (converted)
ACHN = assay: NCI cancer screening, growth inhibition (SRB); assay type: cell-based; conditions: Renal Cancer, 48 hours exposure
HCT-15 = assay: NCI cancer screening, growth inhibition (SRB); assay type: cell-based; conditions: Colon Cancer, 48 hours exposure
RPMI-2.26 = assay: NCI cancer screening, growth inhibition (SRB); assay type: cell-based; conditions: 48 h, read-out: Log10 GI50 (converted)
SP-268 = assay: NCI cancer screening, growth inhibition (SRB); assay type: cell-based; conditions: 48 h, read-out: Log10 GI50 (converted)
[6] = read-out: Log10 GI50 (converted)

Which GI50 (PC-3; Homo sapiens, PC-3, read-out: Log10 GI50 (converted)) does the source give for `Nc1ccn([C@@H]2CO[C@H](CO)O2)c(=O)n1` [(-)-OddC, (-)-(2S,4S)-1-(2-hydroxymethyl-1,3-dioxolan-4-yl)cytosine] here?
The GI50 was 0.513 µM.

What about the “Log10 TGI” value (PC-3) of the same compound?
The value was greater than -4.00.

What about the GI50 (TK-30; 48 h, read-out: Log10 GI50 (converted)) of the same compound?
Its GI50 is greater than 100 µM.

What about the “Log10 TGI” value (TK-30; Renal Cancer, 48 hours exposure) of the same compound?
Its value is greater than -4.00.

What about the “colon tumor cell growth” value (Colon 38 tumor cells) of the same compound?
The value was “retarded”.

What about the “Log10 TGI” value (HCT-116) of the same compound?
The value was greater than -4.00.

And the GI50 (HCT-116; Homo sapiens, HCT-116, read-out: Log10 GI50 (converted))?
The GI50 was 5.89 µM.

What about the GI50 (MDA-MB-231/ATCC [1]) of the same compound?
The GI50 was greater than 100 µM.

What about the “Log10 TGI” value (RL-60(TB)) of the same compound?
The value was greater than -4.00.

What about the GI50 (RL-60(TB); [6]) of the same compound?
The GI50 was 0.525 µM.

And the “Log10 TGI” value (HS578T; Breast Cancer, 48 hours exposure)?
Its value is greater than -4.00.

What about the GI50 (HS578T; Homo sapiens, Hs-578T, 48 h, read-out: Log10 GI50 (converted)) of the same compound?
Its GI50 is greater than 100 µM.

What about the “Log10 TGI” value (MCF7) of the same compound?
The value was greater than -4.00.

And the GI50 (MCF7; Homo sapiens, MCF7, read-out: Log10 GI50 (converted))?
The GI50 was 1.12 µM.

And the GI50 (NCI-H460; Homo sapiens, NCI-H460, read-out: Log10 GI50 (converted))?
The GI50 was 47.9 µM.

And the “Log10 TGI” value (NCI-H460)?
Its value is greater than -4.00.

What about the “Log10 TGI” value (HT29; Colon Cancer, 48 hours exposure) of the same compound?
The value was greater than -4.00.

What about the GI50 (HT29; Homo sapiens, HT-29, 48 h, read-out: Log10 GI50 (converted)) of the same compound?
The GI50 was greater than 100 µM.

And the GI50 (HOP-62; Homo sapiens, HOP-62, read-out: Log10 GI50 (converted))?
Its GI50 is 0.589 µM.

What about the “Log10 TGI” value (HOP-62) of the same compound?
Its value is -4.71.

And the GI50 (OVCAR-5; Homo sapiens, OVCAR-5, read-out: Log10 GI50 (converted))?
Its GI50 is 38.9 µM.

And the “Log10 TGI” value (OVCAR-5)?
Its value is greater than -4.00.

What about the GI50 (SN12C; Homo sapiens, SN12C, read-out: Log10 GI50 (converted)) of the same compound?
The GI50 was 0.537 µM.

And the “Log10 TGI” value (SN12C)?
The value was greater than -4.00.

And the GI50 (CAKI-1; Homo sapiens, CAKI-1, read-out: Log10 GI50 (converted))?
The GI50 was 0.224 µM.

What about the “Log10 TGI” value (CAKI-1) of the same compound?
Its value is -4.87.

And the “Log10 TGI” value [2]?
Its value is greater than -4.00.

And the “Log10 TGI” value (MDA-MB-231/ATCC [3])?
The value was greater than -4.00.

What about the “Log10 TGI” value (BT-549) of the same compound?
Its value is greater than -4.00.

And the GI50 (BT-549; Homo sapiens, BT-549, read-out: Log10 GI50 (converted))?
Its GI50 is 25.7 µM.

And the “Log10 TGI” value (785-4)?
Its value is greater than -4.00.

What about the GI50 (785-4; [6]) of the same compound?
The GI50 was 4.37 µM.

And the GI50 (NCI-H522; Homo sapiens, NCI-H522, read-out: Log10 GI50 (converted))?
The GI50 was 0.871 µM.

And the “Log10 TGI” value (NCI-H522)?
The value was greater than -4.00.

What about the GI50 (RXF-393; Homo sapiens, RXF 393, read-out: Log10 GI50 (converted)) of the same compound?
The GI50 was 0.676 µM.

What about the “Log10 TGI” value (RXF-393) of the same compound?
Its value is greater than -4.00.

And the GI50 (UACC-62; Homo sapiens, UACC-62, read-out: Log10 GI50 (converted))?
The GI50 was 2.95 µM.

What about the “Log10 TGI” value (UACC-62) of the same compound?
The value was greater than -4.00.

What about the “Log10 TGI” value (NCI-H322M [4]) of the same compound?
The value was greater than -4.00.

And the GI50 (OVCAR-3)?
The GI50 was 36.3 µM.

And the GI50 (SK-MEL-28; Homo sapiens, SK-MEL-28, read-out: Log10 GI50 (converted))?
Its GI50 is 49 µM.

What about the “Log10 TGI” value (SK-MEL-28) of the same compound?
The value was greater than -4.00.

And the GI50 (A549/ATCC; Homo sapiens, A549, read-out: Log10 GI50 (converted))?
Its GI50 is 0.977 µM.

And the “Log10 TGI” value (A549/ATCC)?
Its value is greater than -4.00.

And the GI50 (NCI-H322M [5])?
The GI50 was greater than 100 µM.

What about the GI50 (ACHN; Homo sapiens, ACHN, read-out: Log10 GI50 (converted)) of the same compound?
The GI50 was 0.347 µM.

What about the “Log10 TGI” value (ACHN) of the same compound?
The value was greater than -4.00.

What about the “Log10 TGI” value (HCT-15) of the same compound?
The value was greater than -4.00.

What about the GI50 (HCT-15; Homo sapiens, HCT-15, read-out: Log10 GI50 (converted)) of the same compound?
The GI50 was 4.07 µM.

What about the GI50 (RPMI-2.26) of the same compound?
The GI50 was 93.3 µM.

What about the GI50 (SP-268) of the same compound?
Its GI50 is 6.61 µM.
